Experimental data taken from US20050222209A1, “Methods and compositions for the treatment, prevention or management of dysfunctional sleep and dysfunctional sleep associated with disease” (priority 2004, published 2005).

Tests used:
[1] = system: subjects; test: Pittsburgh Sleep Quality Index study (PSQI, daily sleep diary); format: in vivo, human; details: 10 mg/day orally, 12 week study, twelve subjects
Protocol: Twelve subjects were treated with 10 mg/day of 3-(4-amino-1-oxo-1,3-dihydro-isoindol-2-yl)-piperidine-2,6-dione orally for 12 weeks. Subjects were seen every 2 weeks until study completion. Subjects were asked to keep a daily sleep diary asking how much interference with sleep (0-10 scale) was experienced. Patients were also asked to complete the Pittsburgh Sleep Quality Inventory (PSQI) at the start of the treatment and ever 4 weeks thereafter, Buysse, DJ et al., Journal of Psychiatric Research, 28 (2), 193-213, 1989.

[2] = cited from earlier work; for hygroscopicity: crystalline polymorphic form; for interconversion of polymorphic form: solvent system or relative humidity as stated; for interconversion on heating (desolvation experiments): Form E: about 125° C. for about five minutes, Form B: 175° C. for about five minutes

| Structure (SMILES) | hygroscopicity [2] | interconversion of polymorphic form [2] | interconversion on heating (desolvation experiments) [2] | further results |
| --- | --- | --- | --- | --- |
| Nc1cccc2c1CN(C1CCC(=O)NC1=O)C2=O (stereo not shown) [3-(4-amino-1-oxo-1,3-dihydro-isoindol-2-yl)-piperidine-2,6-dione] |  |  |  | need for sleep medications [1]: significantly improved; overall sleep quality [1]: significantly improved; presence of daytime sleepiness [1]: significantly improved |
| Nc1cccc2c1CN(C1CCC(=O)NC1=O)C2=O (stereo not shown) [Form C, 3-(4-amino-1-oxo-1,3 dihydro-isoindol-2-yl)-piperidene-2,6-dione] | not hygroscopic below about 85% RH | can convert to Form B at higher relative humidities |  |  |
| Nc1cccc2c1CN(C1CCC(=O)NC1=O)C2=O (stereo not shown) [Form D, 3-(4-amino-1-oxo-1,3 dihydro-isoindol-2-yl)-piperidene-2,6-dione] | either weakly or not hygroscopic | will typically convert to Form B when stressed at higher relative humidities |  |  |
| Nc1cccc2c1CN(C1CCC(=O)NC1=O)C2=O (stereo not shown) [Form E, 3-(4-amino-1-oxo-1,3 dihydro-isoindol-2-yl)-piperidene-2,6-dione] |  | can convert to Form C in an acetone solvent system and to Form G in a THF solvent system | can convert to Form B |  |
| Nc1cccc2c1CN(C1CCC(=O)NC1=O)C2=O (stereo not shown) [Form B, 3-(4-amino-1-oxo-1,3 dihydro-isoindol-2-yl)-piperidene-2,6-dione] |  | converts to Form E in aqueous solvent systems | can convert to Form F |  |
| Nc1cccc2c1CN(C1CCC(=O)NC1=O)C2=O (stereo not shown) [Form A, 3-(4-amino-1-oxo-1,3 dihydro-isoindol-2-yl)-piperidene-2,6-dione] | weakly or not hygroscopic |  |  | relative stability of polymorph ([2]; Form A: among anhydrous polymorphs, Form E: in aqueous solvent systems): most thermodynamically stable anhydrous polymorph |
